From patent US10961202B2, “Bis-benzimidazole compounds and methods of using the same” (THE SCRIPPS RESEARCH INSTITUTE, priority 2017, dated 2021)
pIC50: −log10 of the molar value.

test system: r(CUG)12-MBNL1 complex; assay: Inhibition of the r(CUG)12-MBNL1 complex measured by TR-FRET; assay type: biochemical; conditions: Table M; 80 nM RNA, 60 nM MBNL1-His6

| pIC50 | Structure (SMILES) |
| --- | --- |
| 4.30 | CN(C)CCNC(=O)c1ccc(-c2nc3cc(-c4ccc5[nH]c(-c6ccc(C(=O)N(C)CCCN(C)C(=O)c7ccc(-c8nc9cc(-c%10ccc%11[nH]c(-c%12ccc(C(=O)NCCN(C)C)cc%12)nc%11c%10)ccc9[nH]8)cc7)cc6)nc5c4)ccc3[nH]2)cc1 [Compound 409] |
| 4.46 | CN(C)CCNC(=O)c1ccc(-c2nc3cc(-c4ccc5[nH]c(-c6ccc(C(=O)NC7CCCCC7NC(=O)c7ccc(-c8nc9cc(-c%10ccc%11[nH]c(-c%12ccc(C(=O)NCCN(C)C)cc%12)nc%11c%10)ccc9[nH]8)cc7)cc6)nc5c4)ccc3[nH]2)cc1 (centres unmarked) [Compound 410] |
| 5.72 | CC(CNC(=O)c1ccc(-c2nc3cc(-c4ccc5[nH]c(-c6ccc(C(=O)NCCN(C)C)cc6)nc5c4)ccc3[nH]2)cc1)NC(=O)c1ccc(-c2nc3cc(-c4ccc5[nH]c(-c6ccc(C(=O)NCCN(C)C)cc6)nc5c4)ccc3[nH]2)cc1 (centres unmarked) [Compound 411] |
| 5.48 | CN(C)CCNC(=O)c1ccc(-c2nc3cc(-c4ccc5[nH]c(-c6ccc(C(=O)NCCNC(=O)c7ccc(-c8nc9cc(-c%10ccc%11[nH]c(-c%12ccc(C(=O)NCCN(C)C)cc%12)nc%11c%10)ccc9[nH]8)cc7)cc6)nc5c4)ccc3[nH]2)cc1 [Compound 412] |
| 5.48 | CN(C)CCNC(=O)c1ccc(-c2nc3cc(-c4ccc5[nH]c(-c6ccc(C(=O)NCCCNC(=O)c7ccc(-c8nc9cc(-c%10ccc%11[nH]c(-c%12ccc(C(=O)NCCN(C)C)cc%12)nc%11c%10)ccc9[nH]8)cc7)cc6)nc5c4)ccc3[nH]2)cc1 [Compound 413] |
| 5.09 | CN(C)CCNC(=O)c1ccc(-c2nc3cc(-c4ccc5[nH]c(-c6ccc(C(=O)NCCCCCNC(=O)c7ccc(-c8nc9cc(-c%10ccc%11[nH]c(-c%12ccc(C(=O)NCCN(C)C)cc%12)nc%11c%10)ccc9[nH]8)cc7)cc6)nc5c4)ccc3[nH]2)cc1 [Compound 414] |
| 5.29 | C[C@@H](C(=O)N(C)[C@@H](C)C(=O)N(C)[C@@H](C)C(=O)N(CCCCN(C)C(=O)c1ccc(-c2nc3cc(-c4ccc5[nH]c(-c6ccc(C(=O)NCCN(C)C)cc6)nc5c4)ccc3[nH]2)cc1)CC(N)=O)N(C)C(=O)c1ccc(-c2nc3cc(-c4ccc5[nH]c(-c6ccc(C(=O)NCCN(C)C)cc6)nc5c4)ccc3[nH]2)cc1 [Compound 415] |
| 4.41 | C[C@@H](C(=O)N(C)[C@@H](C)C(=O)N(C)[C@@H](C)C(=O)N(C)[C@@H](C)C(=O)N(CCCCN(C)C(=O)c1ccc(-c2nc3cc(-c4ccc5[nH]c(-c6ccc(C(=O)NCCN(C)C)cc6)nc5c4)ccc3[nH]2)cc1)CC(N)=O)N(C)C(=O)c1ccc(-c2nc3cc(-c4ccc5[nH]c(-c6ccc(C(=O)NCCN(C)C)cc6)nc5c4)ccc3[nH]2)cc1 [Compound 416] |
| 5.03 | C[C@@H](C(=O)N(C)[C@@H](C)C(=O)N(C)[C@@H](C)C(=O)N(C)[C@@H](C)C(=O)N(C)[C@@H](C)C(=O)N(CCCCN(C)C(=O)c1ccc(-c2nc3cc(-c4ccc5[nH]c(-c6ccc(C(=O)NCCN(C)C)cc6)nc5c4)ccc3[nH]2)cc1)CC(N)=O)N(C)C(=O)c1ccc(-c2nc3cc(-c4ccc5[nH]c(-c6ccc(C(=O)NCCN(C)C)cc6)nc5c4)ccc3[nH]2)cc1 [Compound 417] |
| 5.27 | CC(=O)N(CCCCN(C)C(=O)c1ccc(-c2nc3cc(-c4ccc5[nH]c(-c6ccc(C(=O)NCCN(C)C)cc6)nc5c4)ccc3[nH]2)cc1)CC(=O)N(C)[C@@H](C)C(=O)N(C)[C@@H](C)C(=O)N(C)[C@@H](C)C(=O)N(CCCCN(C)C(=O)c1ccc(-c2nc3cc(-c4ccc5[nH]c(-c6ccc(C(=O)NCCN(C)C)cc6)nc5c4)ccc3[nH]2)cc1)CC(N)=O [Compound 418] |
| 5.31 | CN(C)CCNC(=O)c1ccc(-c2nc3cc(-c4ccc5[nH]c(-c6ccc(C(=O)NCCCCCCNC(=O)c7ccc(-c8nc9cc(-c%10ccc%11[nH]c(-c%12ccc(C(=O)NCCN(C)C)cc%12)nc%11c%10)ccc9[nH]8)cc7)cc6)nc5c4)ccc3[nH]2)cc1 [Compound 419] |
| 5.20 | CN(C)CCNC(=O)c1ccc(-c2nc3cc(-c4ccc5[nH]c(-c6ccc(C(=O)NCCCCNC(=O)c7ccc(-c8nc9cc(-c%10ccc%11[nH]c(-c%12ccc(C(=O)NCCN(C)C)cc%12)nc%11c%10)ccc9[nH]8)cc7)cc6)nc5c4)ccc3[nH]2)cc1 [Compound 420] |
| 4.83 | CN(C)CCNC(=O)c1ccc(-c2nc3cc(-c4ccc5[nH]c(-c6ccc(C(=O)NCCCCCCCNC(=O)c7ccc(-c8nc9cc(-c%10ccc%11[nH]c(-c%12ccc(C(=O)NCCN(C)C)cc%12)nc%11c%10)ccc9[nH]8)cc7)cc6)nc5c4)ccc3[nH]2)cc1 [Compound 421] |
| 5.25 | CN(C)CCNC(=O)c1ccc(-c2nc3cc(-c4ccc5[nH]c(-c6ccc(C(=O)NCCCCCCCCNC(=O)c7ccc(-c8nc9cc(-c%10ccc%11[nH]c(-c%12ccc(C(=O)NCCN(C)C)cc%12)nc%11c%10)ccc9[nH]8)cc7)cc6)nc5c4)ccc3[nH]2)cc1 [Compound 422] |
| 5.27 | CN(C)CCNC(=O)c1ccc(-c2nc3cc(-c4ccc5[nH]c(-c6ccc(C(=O)NCCCCCCCCCNC(=O)c7ccc(-c8nc9cc(-c%10ccc%11[nH]c(-c%12ccc(C(=O)NCCN(C)C)cc%12)nc%11c%10)ccc9[nH]8)cc7)cc6)nc5c4)ccc3[nH]2)cc1 [Compound 423] |
| 5.24 | CN(C)CCNC(=O)c1ccc(-c2nc3cc(-c4ccc5[nH]c(-c6ccc(C(=O)NCCCCCCCCCCNC(=O)c7ccc(-c8nc9cc(-c%10ccc%11[nH]c(-c%12ccc(C(=O)NCCN(C)C)cc%12)nc%11c%10)ccc9[nH]8)cc7)cc6)nc5c4)ccc3[nH]2)cc1 [Compound 424] |
| 5.01 | CN(C)CCNC(=O)c1ccc(-c2nc3ccc(-c4ccc5nc(-c6ccc(C(=O)NCC(C)(C)CNC(=O)c7ccc(-c8nc9ccc(-c%10ccc%11nc(-c%12ccc(C(=O)NCCN(C)C)cc%12)[nH]c%11c%10)cc9[nH]8)cc7)cc6)[nH]c5c4)cc3[nH]2)cc1 [Compound 425] |
| 5.15 | CC(CCCNC(=O)c1ccc(-c2nc3ccc(-c4ccc5nc(-c6ccc(C(=O)NCCN(C)C)cc6)[nH]c5c4)cc3[nH]2)cc1)CNC(=O)c1ccc(-c2nc3ccc(-c4ccc5nc(-c6ccc(C(=O)NCCN(C)C)cc6)[nH]c5c4)cc3[nH]2)cc1 (centres unmarked) [Compound 426] |
| 5.49 | CN(C)CCNC(=O)c1ccc(-c2nc3ccc(-c4ccc5nc(-c6ccc(C(=O)N7CCC(CCCC8CCN(C(=O)c9ccc(-c%10nc%11ccc(-c%12ccc%13nc(-c%14ccc(C(=O)NCCN(C)C)cc%14)[nH]c%13c%12)cc%11[nH]%10)cc9)CC8)CC7)cc6)[nH]c5c4)cc3[nH]2)cc1 [Compound 427] |
| 5.54 | CN(C)CCNC(=O)c1ccc(-c2nc3ccc(-c4ccc5nc(-c6ccc(C(=O)NC7CCC(CC8CCC(NC(=O)c9ccc(-c%10nc%11ccc(-c%12ccc%13nc(-c%14ccc(C(=O)NCCN(C)C)cc%14)[nH]c%13c%12)cc%11[nH]%10)cc9)CC8)CC7)cc6)[nH]c5c4)cc3[nH]2)cc1 (centres unmarked) [Compound 428] |
| 5.02 | CN(C)CCNC(=O)c1ccc(-c2nc3ccc(-c4ccc5nc(-c6ccc(C(=O)NCCCOCCOCCOCCCNC(=O)c7ccc(-c8nc9ccc(-c%10ccc%11nc(-c%12ccc(C(=O)NCCN(C)C)cc%12)[nH]c%11c%10)cc9[nH]8)cc7)cc6)[nH]c5c4)cc3[nH]2)cc1 [Compound 429] |

| Structure (SMILES) | pIC50 |
| --- | --- |
| C[C@@H](C(=O)N(C)[C@@H](C)C(=O)N(C)[C@@H](C)C(=O)N(C)[C@@H](C)C(=O)N(CCCn1cc(COCCOCCN(C)C(=O)c2ccc(-c3nc4ccc(-c5ccc6nc(-c7ccc(C(=O)NCCN(C)C)cc7)[nH]c6c5)cc4[nH]3)cc2)nn1)CC(N)=O)N(C)C(=O)CNCCCn1cc(COCCOCCN(C)C(=O)c2ccc(-c3nc4ccc(-c5ccc6nc(-c7ccc(C(=O)NCCN(C)C)cc7)[nH]c6c5)cc4[nH]3)cc2)nn1 [Compound 430] | 5.11 |
| C[C@H](C(=O)N(C)[C@H](C)C(=O)N(C)[C@H](C)C(=O)N(C)[C@H](C)C(=O)N(CCCn1cc(COCCOCCOCCOCCNC(=O)c2ccc(-c3nc4ccc(-c5ccc6nc(-c7ccc(C(=O)NCCN(C)C)cc7)[nH]c6c5)cc4[nH]3)cc2)nn1)CC(N)=O)N(C)C(=O)CNCCCn1cc(COCCOCCOCCOCCNC(=O)c2ccc(-c3nc4ccc(-c5ccc6nc(-c7ccc(C(=O)NCCN(C)C)cc7)[nH]c6c5)cc4[nH]3)cc2)nn1 [Compound 431] | < 3.70 |
| CN(C)CCNC(=O)c1ccc(-c2nc3ccc(-c4ccc5nc(-c6ccc(C(=O)N(C)CCOCCOCc7cn(CCCNCC(=O)N8CCC[C@H]8C(=O)N8CCC[C@H]8C(=O)N8CCC[C@H]8C(=O)N8CCC[C@H]8C(=O)N(CCCn8cc(COCCOCCN(C)C(=O)c9ccc(-c%10nc%11ccc(-c%12ccc%13nc(-c%14ccc(C(=O)NCCN(C)C)cc%14)[nH]c%13c%12)cc%11[nH]%10)cc9)nn8)CC(N)=O)nn7)cc6)[nH]c5c4)cc3[nH]2)cc1 [Compound 432] | 4.94 |
| CN(C)CCNC(=O)c1ccc(-c2nc3ccc(-c4ccc5nc(-c6ccc(C(=O)N(C)CCOCCOCCOCCOCc7cn(CCCNCC(=O)N8CCC[C@H]8C(=O)N8CCC[C@H]8C(=O)N8CCC[C@H]8C(=O)N8CCC[C@H]8C(=O)N(CCCn8cc(COCCOCCOCCOCCN(C)C(=O)c9ccc(-c%10nc%11ccc(-c%12ccc%13nc(-c%14ccc(C(=O)NCCN(C)C)cc%14)[nH]c%13c%12)cc%11[nH]%10)cc9)nn8)CC(N)=O)nn7)cc6)[nH]c5c4)cc3[nH]2)cc1 [Compound 433] | < 3.70 |
| CN(C)CCNC(=O)c1ccc(-c2nc3ccc(-c4ccc5nc(-c6ccc(C(=O)NCc7cn(CCCNCC(=O)N8CCC[C@H]8C(=O)N8CCC[C@H]8C(=O)N8CCC[C@H]8C(=O)N8CCC[C@H]8C(=O)N(CCCn8cc(CNC(=O)c9ccc(-c%10nc%11ccc(-c%12ccc%13nc(-c%14ccc(C(=O)NCCN(C)C)cc%14)[nH]c%13c%12)cc%11[nH]%10)cc9)nn8)CC(N)=O)nn7)cc6)[nH]c5c4)cc3[nH]2)cc1 [Compound 434, (S)-N-(2-amino-2-oxoethyl)-N-(3-(4-((4-(2′-(4-((2-(dimethylamino)ethyl)carbamoyl)phenyl)-3H,3′H-[5,5′-bibenzo[d]imidazol]-2-yl)benzamido)methyl)-1H-1,2,3-triazol-1-yl)propyl)-1-((3-(4-((4-(2′-(4-((2-(dimethylamino)ethyl)carbamoyl)phenyl)-3H,3′H-[5,5′-bibenzo[d]imidazol]-2-yl)benzamido)methyl)-1H-1,2,3-triazol-1-yl)propyl)glycyl-L-prolyl-L-prolyl-L-prolyl)pyrrolidine-2-carboxamide] | 4.98 |
